According to patent US20070259923A1, “MGluR5 modulators IV” (AstraZeneca AB, priority 2006, published 2007):

How the values were obtained:
[1] = Determination of brain to plasma ratio in rat; assay type: in vivo; conditions: brain and plasma, female Sprague Dawley rats, read-out: Brain/Plasma Ratio of compound in Rat
Description: Brain to plasma ratios are estimated in female Sprague Dawley rats. The compound is dissolved in water or another appropriate vehicle. For determination of brain to plasma ratio the compound is administrated as a subcutaneous, or an intravenous bolus injection, or an intravenous infusion, or an oral administration. At a predetermined time point after the administration a blood sample is taken with cardiac puncture. The rat is terminated by cutting the heart open, and the brain is immediately retained. The blood samples are collected in heparinized tubes and centrifuged within 30 minutes, in order to separate the plasma from the blood cells. The plasma is transferred to 96-well plates and stored at −20° C. until analysis. The brains are divided in half, and each half is placed in a pre-tarred tube and stored at −20° C. until analysis. Prior to the analysis, the brain samples are thawed and 3 ml/g brain tissue of distilled water is added to the tubes. The brain samples are sonicated in an ice bath until the samples are homogenized. Both brain and plasma samples are precipitated with acetonitrile. After centrifugation, the supernatant is diluted with 0.2% formic acid. […] After reconstitution of the residuals the samples are ready for injection onto the HPLC column.

[2] = molecular target: T1, human mGluR5d (Homo sapiens, UniProt P41594); experiment: FLIPR assay, mGluR5 antagonism (intracellular calcium mobilization); assay type: cell-based; conditions: cells expressing human mGluR5d; read-out: FLIPR hmGluR5d
T1 construct: expressed in transfected cells; the IP3 assay names GHEK cells stably expressing human mGluR5d
T1 sequence (P41594 21-942 isoform P41594-3 limits assumed): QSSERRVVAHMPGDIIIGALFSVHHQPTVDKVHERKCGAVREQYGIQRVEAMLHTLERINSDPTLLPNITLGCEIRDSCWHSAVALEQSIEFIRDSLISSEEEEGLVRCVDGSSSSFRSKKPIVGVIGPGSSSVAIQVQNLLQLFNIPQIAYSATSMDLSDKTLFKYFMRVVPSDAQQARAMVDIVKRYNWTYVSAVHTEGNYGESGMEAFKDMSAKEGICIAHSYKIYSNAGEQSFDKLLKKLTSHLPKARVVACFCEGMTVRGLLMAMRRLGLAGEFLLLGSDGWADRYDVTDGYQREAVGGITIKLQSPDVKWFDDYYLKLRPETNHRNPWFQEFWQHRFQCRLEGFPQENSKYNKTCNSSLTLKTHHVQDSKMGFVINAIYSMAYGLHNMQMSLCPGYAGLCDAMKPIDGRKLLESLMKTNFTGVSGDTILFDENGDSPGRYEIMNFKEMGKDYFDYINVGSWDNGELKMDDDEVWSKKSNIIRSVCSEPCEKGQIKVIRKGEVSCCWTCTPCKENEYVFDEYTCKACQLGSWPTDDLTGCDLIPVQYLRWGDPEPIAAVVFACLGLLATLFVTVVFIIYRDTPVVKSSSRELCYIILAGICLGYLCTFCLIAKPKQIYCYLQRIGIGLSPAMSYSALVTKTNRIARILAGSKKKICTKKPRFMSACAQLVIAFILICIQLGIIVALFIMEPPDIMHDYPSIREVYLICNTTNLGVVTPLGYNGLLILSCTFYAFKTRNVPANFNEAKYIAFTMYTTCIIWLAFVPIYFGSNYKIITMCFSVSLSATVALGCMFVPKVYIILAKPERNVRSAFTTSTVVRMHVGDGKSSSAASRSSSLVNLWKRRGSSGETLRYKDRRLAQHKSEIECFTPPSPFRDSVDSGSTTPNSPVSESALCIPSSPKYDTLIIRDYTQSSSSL
From the text: The properties of the compounds of the invention can be analyzed using standard assays for pharmacological activity. Examples of glutamate receptor assays are well known in the art as described in for example Aramori et al., Neuron 8:757 (1992), Tanabe et al., Neuron 8:169 (1992), Miller et al., J. Neuroscience 15: 6103 (1995), Balazs, et al., J. Neurochemistry 69:151 (1997). The methodology described in these publications is incorporated herein by reference. Conveniently, the compounds of the invention can be studied by means of an assay (FLIPR) that measures the mobilization of intracellular calcium, [Ca^2+]i in cells expressing mGluR5 or another assay (IP3) that measures inositol phosphate turnover.
Cells expressing human mGluR5d as described in WO97/05252 are seeded at a density of 100,000 cells per well on collagen coated clear bottom 96-well plates with black sides and experiments are done 24 h following seeding. […] The fluorescence signal is sampled 50 times at 1 second intervals followed by 3 samples at 5 second intervals immediately after each of the two additions. Responses are measured as the difference between the peak height of the response to agonist, less the background fluorescence within the sample period. […]

Compound	Kp [1]	IC50 [2]
Cc1cc(-c2nnc(N3CCC[C@@H]3c3cc(-c4cccc(C#N)c4)on3)n2C)ccn1 [Example 12.4, 3-(3-{(R)-1-[4-Methyl-5-(2-methyl-pyridin-4-yl)-4H-[1,2,4]triazol-3-yl]-pyrrolidin-2-yl}-isoxazol-5-yl)-benzonitrile]	0.06	47 nM
Cn1c(-c2cccnc2)nnc1N1CCC[C@@H]1c1cc(-c2cccc(C#N)c2)on1 [Example 12.6, 3-{3-[(R)-1-(4-Methyl-5-pyridin-3-yl-4H-[1,2,4]triazol-3-yl)-pyrrolidin-2-yl]-isoxazol-5-yl}-benzonitrile]	0.05	86 nM
